Results: patent US20260138961A1, “MODULATORS OF MITOCHONDRIAL DNA REPLICATION” (Pretzel Therapeutics, Inc., priority 2022, published 2026)

Each molecule was assayed against T1, wild type human POLγ (POLγA:WT) (Homo sapiens, UniProt P54098) (assay: DNA polymerization assay, wild type POLγ). Conditions: 100 μM dNTP, read-out: WT AC50 (μM) at 100 μM.
T1 sequence (P54098 1-1239): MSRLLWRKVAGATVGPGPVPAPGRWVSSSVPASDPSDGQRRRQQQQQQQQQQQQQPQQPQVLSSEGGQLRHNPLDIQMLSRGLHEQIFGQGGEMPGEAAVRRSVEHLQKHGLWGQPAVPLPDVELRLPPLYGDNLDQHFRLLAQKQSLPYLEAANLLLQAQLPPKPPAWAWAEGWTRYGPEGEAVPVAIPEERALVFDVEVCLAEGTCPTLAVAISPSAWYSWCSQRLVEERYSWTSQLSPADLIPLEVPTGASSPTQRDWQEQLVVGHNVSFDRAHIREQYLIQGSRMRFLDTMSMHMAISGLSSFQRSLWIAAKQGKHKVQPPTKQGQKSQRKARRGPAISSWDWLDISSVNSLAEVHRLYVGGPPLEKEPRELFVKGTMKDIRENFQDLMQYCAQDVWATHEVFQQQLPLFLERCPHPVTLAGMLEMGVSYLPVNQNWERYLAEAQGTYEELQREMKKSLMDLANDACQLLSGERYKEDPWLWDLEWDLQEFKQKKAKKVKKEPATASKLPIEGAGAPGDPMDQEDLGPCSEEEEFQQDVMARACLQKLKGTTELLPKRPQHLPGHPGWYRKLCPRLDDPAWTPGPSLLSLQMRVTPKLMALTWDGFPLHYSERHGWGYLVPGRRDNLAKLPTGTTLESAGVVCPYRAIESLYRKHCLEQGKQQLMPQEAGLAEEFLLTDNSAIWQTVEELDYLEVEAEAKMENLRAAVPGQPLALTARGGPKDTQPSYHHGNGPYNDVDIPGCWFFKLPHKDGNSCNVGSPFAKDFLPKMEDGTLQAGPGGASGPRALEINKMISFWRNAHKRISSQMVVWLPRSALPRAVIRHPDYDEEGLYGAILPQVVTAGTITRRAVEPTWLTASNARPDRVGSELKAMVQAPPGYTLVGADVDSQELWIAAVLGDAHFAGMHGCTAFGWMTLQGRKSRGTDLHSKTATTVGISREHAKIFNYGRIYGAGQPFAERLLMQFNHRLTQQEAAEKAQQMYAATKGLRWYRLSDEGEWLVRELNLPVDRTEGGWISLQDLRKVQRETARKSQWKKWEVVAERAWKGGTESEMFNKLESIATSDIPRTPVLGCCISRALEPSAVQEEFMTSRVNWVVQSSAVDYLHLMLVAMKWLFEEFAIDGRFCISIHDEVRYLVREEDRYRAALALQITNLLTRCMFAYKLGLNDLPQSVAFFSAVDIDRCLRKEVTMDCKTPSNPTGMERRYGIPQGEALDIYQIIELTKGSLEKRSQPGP
T1 sequence (Q9UHN1 1-485 partner): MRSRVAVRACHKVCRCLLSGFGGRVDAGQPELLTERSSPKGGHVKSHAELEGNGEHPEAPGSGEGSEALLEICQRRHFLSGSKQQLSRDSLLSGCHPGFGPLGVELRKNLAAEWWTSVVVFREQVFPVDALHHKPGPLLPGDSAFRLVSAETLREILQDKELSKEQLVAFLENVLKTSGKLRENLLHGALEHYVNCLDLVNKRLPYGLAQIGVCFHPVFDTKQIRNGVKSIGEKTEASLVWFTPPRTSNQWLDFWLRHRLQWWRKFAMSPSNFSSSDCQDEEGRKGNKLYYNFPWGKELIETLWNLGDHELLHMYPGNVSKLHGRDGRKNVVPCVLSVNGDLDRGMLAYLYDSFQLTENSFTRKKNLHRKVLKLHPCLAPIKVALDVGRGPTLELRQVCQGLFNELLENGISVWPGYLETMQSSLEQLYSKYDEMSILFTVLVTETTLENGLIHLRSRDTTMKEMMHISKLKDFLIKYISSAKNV
Format: biochemical
Method: DNA Polymerization Assay to Monitor Effects on Human Wildtype POLγ and Four Disease-Causing Mutant Variants of Human POLγ.
The ability of small molecules to stimulate the polymerase activity of POLγ was analyzed in a quantitative fluorescence SYBR Green I assay with fluorescence intensity (FI) readout.
In the presence of dNTPs, wild type human POLγ and mutant derivatives thereof were incubated with single-stranded, circular M13mp18 ssDNA hybridized to a short DNA oligonucleotide that functions as a primer for initiation of DNA synthesis. POLγ and mutant derivatives thereof will extend the primer and use the M13mp18 molecule as a template to synthesize long stretches of double-stranded DNA. SYBR Green I, which is a double-stranded DNA-binding dye, was used to quantify formation of double-stranded DNA in the reaction. When bound to double-stranded DNA, SYBR Green I fluorescence increases by up to 100-fold.
The assay was performed in the 384-well plate format. Upon addition of compounds, changes in double-stranded DNA synthesis activity can be monitored by following effects on fluorescent intensity.
The reactions also contained the accessory POLγB subunit, and the human mitochondrial single-stranded DNA binding protein (mtSSB).
The DNA template mixture used in the assay contained 0.5 nM primed M13 mp18 ssDNA, 400 nM mtSSB, 0.1 mM Tris-HCl (pH 8.0), 0.1 mM dNTP, 10 mM MgCl2, 0.1 mg/mL BSA, 1 mM TCEP solution, and 0.02% Triton X-100. The DNA template mixture for the wild type protein contained either 100 μM dNTP, 1 μM dNTP, or 0.1 μM dNTP, designated in Table 2 as 100 μM, 1 μM, and 0.1 μM, respectfully.
Microplates with compounds (0.1 μL in each well) to be tested in the assay were prepared from 10 mM compound stocks in 100% DMSO, and equal amounts of DMSO without any compound were added to positive and negative control wells.
The protein mixture was dispensed (5 μL into each well) into compound plates and incubated at 37° C. for 15 minutes. After incubation, 5 μL of the DNA template mixture was dispensed into each well. The plates were then incubated at 37° C. for 2 hours.
During incubation, a combined stop buffer and detection reagent solution was prepared. The buffer contained 25 mM EDTA (pH 8.0), 0.02% Triton X-100, and SYBR Green I [Invitrogen] diluted 10,000× (for fluorescent readout). EDTA will stop the enzymatic reaction by chelating magnesium ions.

AC50	Molecule
0.3 µM	Cc1ccc(C)c(S(=O)(=O)Nc2csc(-c3ccccc3)n2)c1 [Example 134, 2,5-dimethyl-N-(2-phenylthiazol-4-yl)benzenesulfonamide]
0.6 µM	Cc1cc(Cl)ccc1S(=O)(=O)Nc1csc(-c2ccccc2)n1 [Example 135, 4-chloro-2-methyl-N-(2-phenylthiazol-4-yl)benzenesulfonamide]
0.8 µM	Cc1cc(S(=O)(=O)Nc2csc(-c3ccccc3)n2)c(Cl)cc1F [Example 136, 2-chloro-4-fluoro-5-methyl-N-(2-phenylthiazol-4-yl)benzenesulfonamide]
> 10 µM	Cc1cc(S(=O)(=O)Nc2nc(-c3ccccc3)no2)c(C)cc1Cl [Example 143, 4-chloro-2,5-dimethyl-N-(3-phenyl-1,2,4-oxadiazol-5-yl)benzenesulfonamide]
> 10 µM	O=S(=O)(Nc1csc(-c2ccccc2)n1)c1cccc(C(F)(F)F)c1 [Example 151, N-(2-phenylthiazol-4-yl)-3-(trifluoromethyl)benzenesulfonamide]
> 10 µM	O=S(=O)(Nc1csc(-c2ccccc2)n1)c1ccc2c(c1)CCO2 [Example 152, N-(2-phenylthiazol-4-yl)-2,3-dihydrobenzofuran-5-sulfonamide]
6 µM	Cc1cc(S(=O)(=O)Nc2ccc3c(c2)CC(=O)N3)c(C)cc1Cl [Example 185, 4-chloro-2,5-dimethyl-N-(2-oxoindolin-5-yl)benzenesulfonamide]

Further lines, the molecule ahead of its results:

Molecule	AC50
Cc1cc(S(=O)(=O)Nc2cccc(C(=O)N3CCCOC(C)(C)C3)c2)c(C)cc1Cl [Example 106, 4-chloro-N-(3-(2,2-dimethyl-1,4-oxazepane-4-carbonyl)phenyl)-2,5-dimethylbenzenesulfonamide]	32 µM
Cc1cc(S(=O)(=O)Nc2cccc(C(=O)N3CCc4cn[nH]c4C3)c2)c(C)cc1Cl [Example 107, 4-chloro-2,5-dimethyl-N-(3-(4,5,6,7-tetrahydro-1H-pyrazolo[3,4-c]pyridine-6-carbonyl)phenyl)benzenesulfonamide]	1 µM
Cc1cc(S(=O)(=O)Nc2cccc(C(=O)N3C[C@H](C)[C@@H](N)C3)c2)c(C)cc1Cl [Example 108, N-(3-((3R,4S)-3-amino-4-methylpyrrolidine-1-carbonyl)phenyl)-4-chloro-2,5-dimethylbenzenesulfonamide]	24 µM
Cc1cc(S(=O)(=O)Nc2cccc(C(=O)N(C)c3ccccn3)c2)c(C)cc1Cl [Example 109, 3-((4-chloro-2,5-dimethylphenyl)sulfonamido)-N-methyl-N-(pyridin-2-yl)benzamide]	> 100 µM
Cc1cc(NS(=O)(=O)c2cc(C)c(Cl)cc2C)cc(-c2ncc(C)s2)c1 [Example 110, 4-chloro-2,5-dimethyl-N-(3-methyl-5-(5-methylthiazol-2-yl)phenyl)benzenesulfonamide]	> 100 µM
Cc1cnc(-c2cc(NS(=O)(=O)c3cc(C)c(Cl)cc3C)ccc2Cl)s1 [Example 111, 4-chloro-N-(4-chloro-3-(5-methylthiazol-2-yl)phenyl)-2,5-dimethylbenzenesulfonamide]	3 µM
Cc1cc(S(=O)(=O)Nc2cccc(C(=O)N(C(C)C)C3COC3)c2)c(C)cc1Cl [Example 112, 3-((4-chloro-2,5-dimethylphenyl)sulfonamido)-N-isopropyl-N-(oxetan-3-yl)benzamide]	20 µM
Cc1cc(Cl)ccc1S(=O)(=O)Nc1cccc(C(=O)N2CCC[C@H]2C)c1 [Example 116, (R)-4-chloro-2-methyl-N-(3-(2-methylpyrrolidine-1-carbonyl)phenyl)benzenesulfonamide]	> 10 µM
Cc1cc(S(=O)(=O)Nc2cccc(C(=O)N3CCCC3)c2)c(C)cc1Cl [Example 119, 4-chloro-2,5-dimethyl-N-(3-(pyrrolidine-1-carbonyl)phenyl) benzenesulfonamide]	> 10 µM
Cc1ccc(S(=O)(=O)Nc2csc(-c3ccccc3)n2)c(C)c1 [Example 123, 2,4-dimethyl-N-(2-phenylthiazol-4-yl)benzenesulfonamide]	3 µM
Cc1cc(F)ccc1S(=O)(=O)Nc1csc(-c2ccccc2)n1 [Example 124, 4-fluoro-2-methyl-N-(2-phenylthiazol-4-yl)benzenesulfonamide]	1 µM
O=S(=O)(Nc1csc(-c2ccccc2)n1)c1ccccc1Cl [Example 125, 2-chloro-N-(2-phenylthiazol-4-yl)benzenesulfonamide]	> 10 µM
Cc1cc(S(=O)(=O)Nc2nsc(-c3ccccc3)n2)c(C)cc1Cl [Example 131, 4-chloro-2,5-dimethyl-N-(5-phenyl-1,2,4-thiadiazol-3-yl)benzenesulfonamide]	1 µM
(R)-2,5-dimethyl-N-(3-(3-methylmorpholine-4-carbonyl)phenyl)benzenesulfonamide [Example 1]	2 µM

Same assay, conditions: WT AC50 (μM) at 100 μM, 100 μM dNTP

Molecule	AC50
Cc1cc(S(=O)(=O)Nc2noc(-c3ccccc3)n2)c(C)cc1Cl [Example 142, 4-chloro-2,5-dimethyl-N-(5-phenyl-1,2,4-oxadiazol-3-yl)benzenesulfonamide]	> 10 µM
